Data reported in patent publication US20050250794A1, “Methods of treating a disorder” (priority 2003, published 2005).
Where two headings read alike, the source gives them in different places.

Experiments:
[1] = target: T1, human SirT1 (Homo sapiens, UniProt Q96EB6); test: SirT1 Fluor de Lys enzymatic deacetylase assay; assay type: biochemical
T1 construct: purchased Biomol SE-239
T1 sequence (Q96EB6 1-747): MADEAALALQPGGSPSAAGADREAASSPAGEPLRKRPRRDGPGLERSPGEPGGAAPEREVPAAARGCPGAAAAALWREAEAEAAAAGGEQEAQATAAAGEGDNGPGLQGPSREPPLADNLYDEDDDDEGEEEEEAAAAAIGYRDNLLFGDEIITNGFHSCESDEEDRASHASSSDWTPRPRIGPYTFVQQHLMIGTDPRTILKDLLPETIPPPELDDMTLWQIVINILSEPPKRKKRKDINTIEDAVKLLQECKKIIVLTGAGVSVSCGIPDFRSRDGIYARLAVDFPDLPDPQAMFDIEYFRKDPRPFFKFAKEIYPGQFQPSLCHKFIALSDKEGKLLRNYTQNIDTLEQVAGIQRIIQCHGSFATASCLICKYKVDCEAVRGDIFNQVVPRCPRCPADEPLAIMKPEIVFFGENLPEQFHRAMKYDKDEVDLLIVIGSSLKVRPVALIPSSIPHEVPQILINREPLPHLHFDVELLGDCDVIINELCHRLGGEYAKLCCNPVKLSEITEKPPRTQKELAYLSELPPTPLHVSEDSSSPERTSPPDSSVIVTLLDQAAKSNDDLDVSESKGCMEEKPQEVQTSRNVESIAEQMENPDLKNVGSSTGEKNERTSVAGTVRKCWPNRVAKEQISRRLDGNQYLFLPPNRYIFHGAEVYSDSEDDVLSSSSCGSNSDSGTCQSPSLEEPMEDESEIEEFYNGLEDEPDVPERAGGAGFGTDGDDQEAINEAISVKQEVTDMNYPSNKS
Description: An exemplary assay method includes a 1536 well format of the SirT1 enzymatic assay that is based on the commercial “Fluor-de-Lys” assay principle by Biomol, which is fluorogenic (www.biomol.com/store/Product_Data_PDFs/ak500.pdf). In this assay, deacetylation of the e-amino function of a lysyl residue is coupled to a fluorogenic “development step that is dependent on the unblocked e-amino functionality and generates fluorescent aminomethylcoumarin. Fluorescence can be read on a commercial macroscopic reader.
Step Description • 1 Prepare amount of 2× Substrates necessary for the number of wells to be assayed.

[2] = target: T2, SirT2 (Homo sapiens, UniProt Q8IXJ6); test: SirT2 activity (Tables 1 and 2); assay type: biochemical
T2 sequence (Q8IXJ6 1-389): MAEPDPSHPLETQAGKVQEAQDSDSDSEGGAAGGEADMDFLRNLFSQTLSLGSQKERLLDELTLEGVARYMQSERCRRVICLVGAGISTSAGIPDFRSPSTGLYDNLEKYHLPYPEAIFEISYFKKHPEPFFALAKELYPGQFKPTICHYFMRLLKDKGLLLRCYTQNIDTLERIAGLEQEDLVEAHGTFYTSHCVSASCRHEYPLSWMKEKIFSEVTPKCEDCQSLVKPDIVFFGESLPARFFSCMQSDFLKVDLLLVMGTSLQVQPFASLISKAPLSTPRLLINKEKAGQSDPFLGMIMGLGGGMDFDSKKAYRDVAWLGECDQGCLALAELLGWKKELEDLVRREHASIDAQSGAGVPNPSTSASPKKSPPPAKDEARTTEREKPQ

[3] = target: T3, GFP-hSIRT2 isoform 1 (Homo sapiens, UniProt Q8IXJ6); test: Acetylated tubulin staining in HeLa cells transfected with GFP-hSIRT2 isoform 1; assay type: cell-based; settings: 50 μM compound with 1 μM TSA, added 36 hours post transfection, stained next morning; versus DMSO
T3 construct: expressed in transfected cells; host or cells: HeLa
T3 sequence (Q8IXJ6 1-389): T2 sequence (Q8IXJ6 1-389)
Experimental: HeLa cells were transfected with GFP-hSIRT2 isoform 1. At 36 hours post transfection 1 μM of TSA and either DMSO or 50 μM of Compound 8 was added. The next morning cells were fixed, permeabilized, and stained for acetylated tubulin.

[4] = Table 1, Activity of Triazoles (conc. in μM), read-out: SirT1
[5] = Table 1, Activity of Triazoles (conc. in μM)
[6] = Table 2, Activity of representative compounds (conc. in μM), read-out: SirT1
[7] = Table 2, Activity of representative compounds (conc. in μM)
[8] = Table 3, p53-382 Fluor de Lys substrate, read-out: SirT1 p53-382-FdL IC50

Compound: NC(=O)CSc1nnc(Cc2c[nH]c3ccccc23)n1Cc1ccccc1 [Compound 1, 2-[4-Benzyl-5-(1H-indol-3-ylmethyl)-4H-[1,2,4]triazol-3-ylsulfanyl]-acetamide]
- IC50 [1, 4]: 1 to 10 µM
- IC50 [2, 5]: > 10 µM

Compound: COc1ccc(-n2c(COc3cccc4ccccc34)nnc2SCC(N)=O)cc1 [Compound 2, 2-[4-(4-Methoxy-phenyl)-5-(naphthalen-1-yloxymethyl)-4H-[1,2,4]triazol-3-ylsulfanyl]-acetamide]
- IC50 [1, 4]: 1 to 10 µM
- IC50 [2, 5]: > 10 µM

Compound: Cc1ccc(-n2c(Cc3ccccc3)nnc2SCC(N)=O)cc1 [Compound 3, 2-(5-Benzyl-4-p-tolyl-4H-[1,2,4]triazol-3-ylsulfanyl)-acetamide]
- IC50 [1, 4]: 1 to 10 µM
- IC50 [2, 5]: > 10 µM

Compound: Cc1ccc(-n2c(SCC(N)=O)nnc2-c2ccccc2Br)cc1 [Compound 4, 2-[5-(2-Bromo-phenyl)-4-p-tolyl-4H-[1,2,4]triazol-3-ylsulfanyl]-acetamide]
- IC50 [1, 4]: > 10 µM
- IC50 [2, 5]: 1 to 10 µM

Compound: O=C(O)CSc1nc2sc3c(c2c(=O)n1C1CCCCC1)CCC3 [Compound 5, (5-Cyclohexyl-4-oxo-2,3,4,5-tetrahydro-1H-8-thia-5,7-diaza-cyclopenta[a]inden-6-ylsulfanyl)-acetic acid]
- IC50 [1, 6]: 1 to 10 µM
- IC50 [2, 7]: > 10 µM

Compound: NC(=O)Cn1c(=O)oc2cc(Br)ccc21 [Compound 6, 2-(6-Bromo-2-oxo-benzooxazol-3-yl)-acetamide]
- IC50 [1, 6]: 1 to 10 µM
- IC50 [2, 7]: > 10 µM

Compound: Nn1c(CCC(=O)O)nc2sc3c(c2c1=O)CCCC3 [Compound 7, 3-(3-Amino-4-oxo-3,4,5,6,7,8-hexahydro-benzo[4,5]thieno[2,3-d]pyrimidin-2-yl)-propionic acid]
- IC50 [1, 6]: > 10 µM
- IC50 [2, 7]: > 10 µM

Compound: NC(=O)COC(=O)c1sc2ccccc2c1Cl [Compound 8, 3-Chloro-benzo[b]thiophene-2-carboxylic acid carbamoylmethyl ester]
- acetylation of tubulin in cells expressing SIRT2 [3]: more highly acetylated

Compound: Cc1sc(NC(=O)Cn2nc([N+](=O)[O-])cc2C)c(C(N)=O)c1C [Compound 9, 4,5-Dimethyl-2-[2-(5-methyl-3-nitro-pyrazol-1-yl)-acetylamino]-thiophene-3-carboxylic acid amide]
- IC50 [1, 8]: > 10 µM

Compound: Cc1sc(NC(=O)c2ccc(Br)o2)c(C(N)=O)c1C [Compound 11, 5-Bromo-furan-2-carboxylic acid (3-carbamoyl-4,5-dimethyl-thiophen-2-yl)-amide]
- IC50 [1, 8]: > 10 µM

Compound: Cc1sc(NC(=O)C2CCCO2)c(C(N)=O)c1C (stereo not shown) [Compound 15, Tetrahydro-furan-2-carboxylic acid (3-carbamoyl-4,5-dimethyl-thiophen-2-yl)-amide]
- IC50 [1, 8]: > 10 µM

Compound: Cc1sc(NC(=O)C2CC2)c(C(N)=O)c1C [Compound 26, 2-(Cyclopropanecarbonyl-amino)-4,5-dimethyl-thiophene-3-carboxylic acid amide]
- IC50 [1, 8]: > 10 µM

Compound: Cc1sc(NC(=O)c2ccncc2)c(C(N)=O)c1C [Compound 29, N-(3-Carbamoyl-4,5-dimethyl-thiophen-2-yl)-isonicotinamide]
- IC50 [1, 8]: > 10 µM

Compound: Cc1sc(NC(=O)c2cnccn2)c(C(N)=O)c1C [Compound 30, Pyrazine-2-carboxylic acid (3-carbamoyl-4,5-dimethyl-thiophen-2-yl)-amide]
- IC50 [1, 8]: > 10 µM

Compound: CC1CCc2c(sc(NC(=O)C3CCCC3)c2C(N)=O)C1 (stereo not shown) [Compound 32, 2-(Cyclopentanecarbonyl-amino)-6-methyl-4,5,6,7-tetrahydro-benzo[b]thiophene-3-carboxylic acid amide]
- IC50 [1, 8]: < 1 µM

Compound: CC(C)CC(=O)Nc1sc2c(c1C(N)=O)CCCCCC2 [Compound 33, 2-(3-Methyl-butyrylamino)-4,5,6,7,8,9-hexahydro-cycloocta[b]thiophene-3-carboxylic acid amide]
- IC50 [1, 8]: > 10 µM

Compound: NC(=O)c1c(NC(=O)C2CC2)sc2c1CCCCC2 [Compound 34, 2-(Cyclopropanecarbonyl-amino)-5,6,7,8-tetrahydro-4H-cyclohepta[b]thiophene-3-carboxylic acid amide]
- IC50 [1, 8]: > 10 µM

Compound: CCC(=O)Nc1sc2c(c1C(N)=O)CCC(C)C2 (stereo not shown) [Compound 35, 6-Methyl-2-propionylamino-4,5,6,7-tetrahydro-benzo[b]thiophene-3-carboxylic acid amide]
- IC50 [1, 8]: 1 to 10 µM

Compound: CC1CCc2c(sc(N)c2C(N)=O)C1 (stereo not shown) [Compound 36, 2-Amino-6-methyl-4,5,6,7-tetrahydro-benzo[b]thiophene-3-carboxylic acid amide]
- IC50 [1, 8]: > 10 µM

Compound: CCC1CCc2c(sc(N)c2C(N)=O)C1 (stereo not shown) [Compound 38, 2-Amino-6-ethyl-4,5,6,7-tetrahydro-benzo[b]thiophene-3-carboxylic acid amide]
- IC50 [1, 8]: > 10 µM

Compound: CSc1c(CC(=O)NCCO)n(C)c2ccc(C)cc12 [Compound 48, 2-(1,5-Dimethyl-3-methylsulfanyl-1H-indol-2-yl)-N-(2-hydroxy-ethyl)-acetamide]
- IC50 [1, 8]: > 10 µM
